Measured values taken from BindingDB's records for patent US20250289812 (Shanghai Institute Of Materia Medica, 2025).

Target: T1, Proto-oncogene tyrosine-protein kinase Src [84-145] (UniProt P12931)
T1 construct: 84-145
Assay: Surface Plasmon Resonance Experiment
Experimental: Experimental method: Surface plasmon resonance test was carried out on BIACORE T200 instrument (GE Company). Fresh purified grade Src kinase SH3 domain protein (concentration 2 mg/ml) was diluted to 0.1 mg/ml with 10 mM CH3COONa (pH 4.2) and then SH3 protein was coupled to the CM5 chip by standard amino coupling methods. The compounds of the invention were diluted in a gradient using a buffer solution (20 mM Tris-HCl, PH 8.0, 100 mM NaCl) for 60 seconds and dissociated for 120 seconds at a flow rate of […], respectively. The changes in response values over time were recorded and analyzed by the BIA Evaluation Software (GE Healthcare) program to obtain the dissociation constants KD for the different compounds with SH3 protein.

| Kd [nM] | Structure (SMILES) |
| --- | --- |
| < 1000 | CCOC(=O)c1c(CNC(=N)N)n(C)c2cc(C3CC4CCC3C4)ccc12 (configuration not stated) [US20250289812, Example SYY-C069] |
| < 1000 | COc1cnc2c(c1)c(C(N)=O)c(CNC(=N)N)n2C [US20250289812, Example SYY-C036] |
